# Test results published in US20030154499A1, “Mouse unable to express functional alpha-4 integrin protein, and methods for assaying compounds or agents for alpha-4 integrin protein antagonist activity and a genetic marker for evaluating efficacy of modulators of signaling activity of a VLA-4 receptor” (priority 2001, published 2003).
# How the values were obtained:
# Format in all cases: in vivo
# [1] = test system: M. musculus mRNA for macrophage mannose receptor; assay: Taqman analysis of macrophage mannose receptor mRNA in brain and spleen of treated EAE mice
# Description: (§1) In these experiments, EAE (experimental allergic encephalomyelitis) mice were used. The EAE mouse is an animal model for Central Nervous System (CNS) autoimmune disease. It is widely used as a human Multiple Sclerosis (MS) model.
# (§2) EAE mice (see protocol below) vehicle only treated and treated with IVL984 or HMR1031 for 14 days (5 mice per group) were sacrificed by cervical dislocation. The brain was aseptically removed and the RNA was prepared using a standard Trizol (Invitrogen) prep (protocol see below). The prepped RNA was run on an agarose gel to determine the quality of the RNA and quantified by UV spec analysis. Taqman analysis was performed using sequence specific primers and probes (sequence see below).
# (§3) PLP139-151 peptide is dissolved in H2O:PBS (1:1) solution to a concentration 5 mg/10 ml (for 50 ug PLP per mouse) or 7.5 mg/10 ml (for 75 ug PLP per group) and emulsified with an equal volume of CFA supplemented with 40 mg/10 ml heated-killed mycobacterium tuberculosis H37Ra. Mice are injected s.c. with 0.2 ml of peptide emulsion in the abdominal flank (0.1 ml on each side). On the same day and 72 hr later, mice are injected i.v. with 100 μl of 35 ng and 50 ng of Bordetella Pertussis toxin in saline respectively.
# (§4) Treatment IVL984 or HMR1031 or vehicle control only: 0.2% Hydroxypropyl Methylcellulose) started 7 days after immunization, before the first EAE symptoms appeared.
# (§5) EAE mice treated with HMR1031A, 50 mg/kg, q.d., s.c. for 14 days from day 7
# (§6) EAE mice treated with IVL984 50 mg/kg, q.d., s.c. for 14 days from day 7
# Brain was divided into two halves and each half was placed in a steril 1.5 ml tube. 0.5 ml TRIzol was added to each tube and the tissue was homogenized using a hand held tissue homogenizer. After homogenization, another 0.5 ml of TRIzol was added to each tube and the samples were incubated for 5 minutes at room temperature to permit complete dissociation of nucleoprotein complexes.
# 0.2 ml of Chloroform (Sigma) was added to each tube and vortexed. Samples were incubated for an additional 5 minutes at room temperature and then centrifuged at 12,000×g for 15 minutes at 4° C.
# The upper aqueous phase was transferred into a fresh, steril tube and the two sample halves per mouse were combined. 0.5 ml isopropylalcohol was added to each combined sample, vortexed and incubated at room temperature for 10 minutes. The samples were then centrifuged at 12,000×g at 4° C. […]
# (§7) The final pellets were briefly air dried and resuspended in nuclease-free, sterile water. […] The concentration was determined by measuring the absorbance at 260 nm.
# Taqman primers were ordered for Mus musculus mRNA for macrophage mannose receptor (Accession number: Z11974). […] The results were normalized to 18S and expressed as logarithm base 2 of copy number difference with 18S RNA levels. […]
# EST AA571535 = assay: Taqman analysis of EST AA571535 in brain and spleen of treated EAE mice
# Description: as §1, §2, §3, §4, §5, §6
# (§8) Brain was divided into two halves and each half was placed in a sterile 1.5 ml tube. 0.5 ml TRIzol was added to each tube and the tissue was homogenized using a hand held tissue homogenizer. […]
# as §7
# (§9) Taqman primers were ordered for the EST with the accession number AA571535 (EST AA571535 (sequence for the EST: SEQ ID NO 18). Primers for the real time Taqman PCR studies were chosen using Primer Express software (Perkin Elmer) and synthesized by Sigma Genosys. The sequences of the forward and reverse primers were AGCAGCCATGGGAGGCA (SEQ ID NO: 19) and TCCGTTTCCCCACAGCAC (SEQ ID NO: 20) respectively. PCR product was run on the 4% agarose gel to confirm presence of a single band. PCR reactions were run on ABI Prizm System 7700 sequence detector (Perkin-Elmer) using CybrGreen PCR Core Reagents Kit (Perkin-Elmer) according to the manufacturer's protocol. […] The results were normalized to 18S and expressed as logarithm base 2 of copy number difference with18S RNA levels. […]
# EST AA154371 = assay: Taqman analysis of EST AA154371 in brain and spleen of treated EAE mice
# Description: as §1, §2
# as §3, with “respectively. Treatment IVL984 or HMR1031 or vehicle control only: 0.2% Hydroxypropyl Methylcellulose) started 7 days after immunization, before the first EAE symptoms appeared.” for “respectively.”
# as §5, §6, §8, §7
# as §9, with “AA154371” for “AA571535”, “21).” for “18).”, “GACAGGGCTGAGGATTCGG” for “AGCAGCCATGGGAGGCA”, “22)” for “19)”, “TCCGTTTCCCCACAGCAC” left out, “23)” for “20)”
# JAB or SOCS-1 protein = assay: FACS analysis of SOCS-1 (JAB) protein in spleen cells of treated EAE mice; settings: 50 mg/kg q.d. s.c. for 14 days from day 7, FACS with C- and N-terminal antibodies, vs vehicle
# Excerpt: In these experiments, EAE (experimental allergic encephalomyelitis) mice as well as KO and wt mice of the present invention were used. The EAE mouse is an animal model for Central Nervous System (CNS) autoimmune disease. It is widely used as a human Multiple Sclerosis (MS) model.
# EAE mice (see protocol below) vehicle only treated and treated with IVL984 for 14 days (5 mice per group) as well as 5 alpha-4 integrin KO mice of the present invention and 4 wt mice of the same genetic background were sacrificed by cervical dislocation. The spleen was aseptically removed and placed in a 15 ml centrifuge tube containing RPMI 1640 medium with 1% FCS. The spleens were then individually meshed in a 10 cm petri dish through a sterile wire screen using a sterile rubber policeman (0.23 mm pore size screen, Thomas Scientific). The screen was washed and the cell suspension collected and transferred into a 15 ml centrifuge tube. After centrifugation at 1200 rpm for 10 minutes at 4° C., the supernatant was decanted and the red blood cells lysed with 1 ml/spleen ice-cold red blood cell lysis buffer for 1-3 minutes on ice. The supernatant was then carefully transferred into a fresh 15 ml centrifuge tube, leaving the fat pellet behind. […] The number of alive cells was determined using a hemacytometer (Hauser Scientific) and Trypan Blue (Gibco, Life Technologies) as the dye. […]
# [2] = EAE mice, 50 mg/kg q.d. s.c. for 14 days from day 7, brain, vs vehicle control
# [3] = EAE mice, 50 mg/kg q.d. s.c. for 14 days from day 7, spleen, vs vehicle control
# [4] = bodily samples of treated EAE mice, tissue not given
smiles,measurement,setting,value
COc1cc(CC(=O)Nc2ccc([C@@H](CC(=O)O)NC(=O)CCCC(=O)O)cc2)ccc1NC(=O)Nc1ccccc1C [IVL 984],"Macrophage mannose receptor, Brain",[1]; [2],"Tendency (The decrease in macrophage mannose receptor mRNA levels is a statistically significant, a probability rate of 5-15%.)"
same,"Macrophage mannose receptor, Spleen",[1]; [3],— (The changes in mRNA levels are statisically significant at a probability rate of higher than 15% (not significant).)
same,macrophage mannose receptor mRNA levels in comparison to vehicle control mice,"[1]; EAE mice, brain samples",statistically significant lower
same,levels of the genetic marker macrophage mannose receptor mRNA,[1]; [4],decreased levels of expression
same,"EST AA 571535, Brain",EST AA571535; [2],— (The changes in mRNA levels are statistically significant at a probability rate of higher than 15% (not significant).)
same,"EST AA 571535, Spleen",EST AA571535; [3],— (The changes in mRNA levels are statistically significant at a probability rate of higher than 15% (not significant).)
same,EST AA571535 mRNA levels in comparison to vehicle control mice,"EST AA571535; EAE mice, brain samples",statistically significant lower
same,levels of the genetic marker EST AA571535,EST AA571535; [4],decreased levels of expression
same,"EST AA 154371, Brain",EST AA154371; [2],✓ (Statistically significant decrease in macrophage mannose receptor mRNA or protein levels with a 5% or lower probability rate in treated mice compared to vehicle control mice.)
same,"EST AA 154371, Spleen",EST AA154371; [3],✓ (Statistically significant decrease in macrophage mannose receptor mRNA or protein levels with a 5% or lower probability rate in treated mice compared to vehicle control mice.)
same,EST AA154371 mRNA levels in comparison to vehicle control mice,"EST AA154371; EAE mice, brain samples",statistically significant lower
same,levels of the genetic marker EST AA154371,EST AA154371; [4],decreased levels of expression
same,levels of JAB or SOCS-1 protein,JAB or SOCS-1 protein,decreased levels of expression on the protein level
